The subject of assay [1] is human platelets. The experiment in a line: collagen-evoked aggregation of washed human platelets. It is filed as cell-based. The method, then: Venous blood was obtained from healthy human subjects who had not taken NSAID's for at least two weeks. Blood was drawn into plastic syringes containing ACD. […] The platelet rich plasma was transferred into fresh plastic tubes and centrifuged at 400×g for 5 min. […] A platelet count was made, which determined the volume of platelet suspension needed to make up 350×10^6 cells for each measurement. The aliquot was diluted with medium to make 0.5 ml/assay/cuvette. Appropriate calibration of the aggregometer (PAP-4C) for 0% and 100% transmission was carried out through the use of a sample of platelet suspension and cell-free medium (37).
0.5 ml of platelet suspension was added to siliconized glass tubes (four at a time) and heated with magnetic stirring to 37° for 1 min in a platelet aggregometer (PAP-4C). Either vehicle alone (ethanol, 1 μl) or hepoxilin analog was then added, followed two min later by agonist (collagen: 2 μg; PGH2: 100 ng/0.5 ml; U46619: 10 ng/0.5 ml or I-BOP: 2 ng/0.5 ml). The response was recorded for the next 5 min. In experiments where analysis of TxB2 and HHT were to be made by HPLC, the platelet suspension at the end of the experiment was diluted with ethyl acetate, 100 ng of prostaglandin B1 was added as internal standard, and the mixture was acidified to pH 3 with 0.1 N HCl. After centrifugation, the organic layer was separated, washed twice with water to neutrality, and evaporated to dryness. Half of the sample was taken and was resuspended in 1 ml ethyl acetate containing 20 μg ADAM reagent, and was left in the dark for 2 h (38). The solvent was then evaporated and the residue was acetylated with a solution of pyridine/acetic anhydride (3/1, v/v) during 16 h at 23°. The reagents were evaporated to dryness and the residue was resuspended in acetonitrile/water for HPLC analysis. In experiments where the conversion of tritiated PGH2 was to be monitored, the procedure described above was repeated with tritiated PGH2 instead of unlabeled PGH2. After extraction of the sample as described above, the radiolabeled compounds were analyzed by TLC. Dose response curves for varying amounts of test compounds were generated and the data expressed as % inhibition of collagen-induced platelet aggregation. Each point was investigated 5 times and statistical analysis of the data was carried out using Macintosh Statview statistical software.

The target in assay [2] is T1, COX-2 (Homo sapiens, UniProt P35354).
T1 construct: purchased Cayman Chemicals
T1 sequence (P35354 18-604): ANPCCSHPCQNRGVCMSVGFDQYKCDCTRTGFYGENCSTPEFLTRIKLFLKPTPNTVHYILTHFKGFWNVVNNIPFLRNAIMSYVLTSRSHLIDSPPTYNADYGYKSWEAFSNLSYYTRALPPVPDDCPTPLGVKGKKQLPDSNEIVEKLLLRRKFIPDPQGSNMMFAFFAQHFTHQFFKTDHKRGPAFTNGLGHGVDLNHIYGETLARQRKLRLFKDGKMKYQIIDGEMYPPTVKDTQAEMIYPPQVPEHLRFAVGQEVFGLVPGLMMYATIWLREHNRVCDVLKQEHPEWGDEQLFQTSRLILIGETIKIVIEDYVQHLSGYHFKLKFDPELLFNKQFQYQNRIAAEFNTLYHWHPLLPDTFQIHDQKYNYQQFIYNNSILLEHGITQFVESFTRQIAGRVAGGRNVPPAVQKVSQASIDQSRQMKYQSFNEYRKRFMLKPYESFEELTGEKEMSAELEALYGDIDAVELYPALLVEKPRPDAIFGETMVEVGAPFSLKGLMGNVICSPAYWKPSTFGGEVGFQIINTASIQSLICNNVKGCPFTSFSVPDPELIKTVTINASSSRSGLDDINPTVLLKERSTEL
The experiment in a line: COX-2 activity, 14C-arachidonic acid conversion, TLC. As to conditions: for COX-2 enzyme activity (% of control values, mean ± SD): n = 3. It counts as biochemical. The method, then:
COX-1 and COX-2 enzyme preparations were purchased from Cayman Chemicals. Preliminary studies established that 40 U of COX-1 or COX-2 could convert about 70% of ^14C-arachidonic acid (spec. act. 55 mCi/mmol, Ontario Isotopes, Ontario, Canada; 100,000 cpm were diluted with 0.5 μg unlabeled arachidonic acid (Cayman Chemicals)/1 ml assay) into products in vitro. Different amounts of PBT-3 (10 μg and 20 μg) were added and the conversion of AA into products was assessed during a 10 min reaction in 1 ml phosphate buffer at 37°. After extraction, products were assessed by TLC (silica gel G, ethyl acetate/acetic acid, 99/1, v/v). After development, the TLC plates were scanned for radioactive products with a Berthold TLC radiochromatogram scanner and the radioactivity was quantified by scraping zones of silica gel, placing in scintillation vials, elution with 1 ml methanol and addition of scintillation medium. Radioactivity was determined by conventional counting in a beta scintillation counter.

The nature of assay [3]: intra ocular pressure in rats, eye drops, TonoPen. It counts as in vivo, Brown Norway rats. As to conditions: 0.005%, one drop daily to left eye, after 10 days' treatment, vs untreated right eye. The method, then: Brown Norway rats (300 g) were purchased from Charles River (St. Constant, Que), and housed (two/cage) in an animal facility with free access to food and water. A light cycle of 12 h on and 12 h off was maintained. Animals were allowed to adjust for one week prior to treatment during which period they were handled daily to get them familiarized with the procedures.
Prior to treatment with test drugs, the rats' intra ocular pressures (IOP) were measured to establish baseline readings. One drop of Didocaine (0.5%, Dioptic Labs, Markham, Ont) was administered to each eye, and the pressure in each eye was measured with a TonoPen (Mentor XL, Innova Medical Ophthalmics, Toronto). The treatment protocol consisted of daily administration of one drop of one of the following substances to the left eye, the right eye being left untreated to act as a control. […] Following this, the animals were left without treatment for 2 weeks (wash-out), and then treatment was started again, the same animals receiving the same drugs. Results are calculated from at least 30 readings/test animal and presented as the mean±SEM (left eye vs right eye), with the exclusion of readings >50 and <10 which were considered spurious and artifactual readings.

From patent publication US8071654B2, “Inhibitors of thromboxane formation and action” (priority 2000, dated 2011) come the findings set out here.

Broadly, the IC50 is the concentration that gives 50% inhibition.

With `CCCCC/C=C\CC1CC1[C@@H](O)/C=C\C/C=C\CCCC(=O)OC` (stereo partly drawn) [PBT-3, 10(S)-hydroxy-11,12-cyclopropyl-eicosa-5Z,8Z,14Z-trienoic acid methyl ester], in assay [1] (Homo sapiens, Platelet, washed human platelets, collagen 2 μg, read-out: IC50 for inhibition of collagen-evoked aggregation), the IC50 was about 800 nM. Moreover, in assay [1] (single dose 1 μg added 2 min prior to collagen (2 μg), 350×10^6 washed human platelets in 0.5 ml), the “inhibition of collagen-evoked aggregation” value was “inhibited the collagen effect, with PBT-3 being the most potent”. Besides, the “COX-2 enzyme activity (% of control values, mean ± SD)” value in assay [2] (PBT-3 3.00 μM) is on record as 109.2 ± 8.0^NS % of control; in assay [2] (PBT-3 30.0 μM) it was 107.1 ± 14^NS % of control. For the same compound, the “inhibition of COX-2, in words” value in assay [2] (relatively large amounts of PBT-3, about 3-4 log doses greater than required to inhibit the TP receptor) is “Neither COX-1, COX-2,12-LOX nor Plase A2 was inhibited”. For the same compound, the “effect on intra ocular pressure (IOP)” value in assay [3] was “significant reduction in IOP, comparable to that produced by latanoprost”.
